Data reported in patent US20090221095A1, “Colorimetric Screening of DNA Binding/Intercalating Agents with Gold Nanoparticle Probes” (NORTHWESTERN UNIVERSITY, priority 2005, published 2009).

Tests used:
Type in all cases: binding
[1] = tested on: triplex DNA (DNA-1, DNA-2, DNA-3); test: UV melting (260 nm) of unmodified triplex DNA-1, DNA-2, DNA-3 (no nanoparticles); conditions: duplex melting transition; solution-phase unmodified DNA, 1 μM each strand, 6 μM binder, 0.5 M NaCl 10 mM PBS
Method: To compare the results from the previous examples with more traditional screening techniques, all eight intercalators were screened, plus a control, by monitoring UV absorbance melting curves (260 nm) of unmodified DNA-1, DNA-2, and DNA-3 (1 μM each), with each intercalator (10 μM), (DNA-1; 3′ TTCTTCTTTTTT CT-5′. DNA-2: 5′-TTCTTCTTTTTTCT-3′, DNA-3: 5′-AAGAAGAAAAAA-3′). (FIG. 2B). The melting experiment performed in the presence of BePl has two melting transitions. The first Tm at 34.8° C. is associated with the denaturation of the triplex structure and the second Tm at 61.4° C. is representative of the corresponding duplex.
To determine the Tm of the duplex DNA in the presence of DNA binders, 2 μM duplex DNA and 5 μM DNA binder were combined in 0.3 M NaCl 10 mM PBS. To determine the Tm of the triplex DNA in the presence of DNA binders, 1 μM of each strand and 6 μM of each DNA binder were combined in 0.5 M NaCl 10 mM PBS. UV-vis melting curves were measured on a CARRY 500 spectrophotometer equipped with a circulating bath. The melting process was monitored by measuring the change in extinction at 260 nm. The solutions were stirred continuously with a magnetic stir bar as the solution temperature was increased at a rate of 0.5° C./min. The first derivative generated from the melting curves was used to determine the Tm.
A melting transition associated with the triple helix was found only for experiments performed in the presence of BePI (34.8° C.) and CORA (17.1° C.) where BePI is determined to be the stronger binder. This is in agreement with the results determined by the chip-based scanometric method described above.

[2] = tested on: duplex DNA between NP-1 and NP-2; test: Melting temperature of NP-1/NP-2 gold nanoparticle duplex nanoassemblies (520 nm); conditions: NP-1 and NP-2 1.5 nM each, intercalator 5 μM, 10 mM PBS pH 7.0, NaCl 0.1 M, control 26.4
Description: This method also utilizes the aggregation-induced, red-to-blue color change associated with 13 nm Au nanoparticles. Gold nanoparticles are functionalized with one of two complementary thiol-modified oligonucleotide strands and are denoted NP-1 and NP-2. When NP-1 and NP-2 are combined, they form aggregates through a reversible DNA hybridization process. This process results in a red-to-blue color change due to a red-shifting and dampening of the nanoparticle plasmon resonance. Increasing the temperature above the melting temperature of the DNA reverses the process, and the particles dissociate with a concomitant blue-to-red color change. […] This increased stability is reflected by an increase in melting temperature. Note that the shape and breadth of the transition is almost independent of the intercalator (FIG. 4). Therefore, by monitoring the blue-to-red color transition of hybridized oligonucleotide-modified Au nanoparticles in the presence of different compounds, the relative strength of intercalator binding can be determined with the naked-eye.
The assay is initiated by mixing NP-1 and NP-2 (1.5 nM each) in a 1:1 molar ratio in 10 mM PBS buffer (pH=7.0, NaCl 0.1 M. The melting temperatures of the nanoassemblies (NP-1 and NP-2) were then determined in the presence of 4′,6-diamidino-2-phenylindole (DAPI), ellipticine (EIPT), Amsacrine (AMSA), daunorubicin (DNR), anthraquinone-2-carboxylic acid (AQ2A), ethidium bromide (EB), and 9-aminoacridine (9-AA) (5 μM), respectively. UV melting profiles were measured by monitoring the absorbance at 520 nm at a scan rate of 0.5° C. min^−1. Melting temperatures were determined by taking the maxima of the first derivative of the melting curves. Control experiments were run by determining the melting temperatures of unmodified duplex DNA (DNA-1: 5′-TAACAATAA-3′, DNA-2: 5′-TTATTGTTA-3′) in the presence of all seven intercalators shown in Table 1.

[3] = tested on: duplex DNA on chip surface; test: Chip-based scanometric detection of duplex DNA binders (silver enhancement); conditions: binder 5 μM
Method: N-Hydroxysuccinimide-activated Codelink glass microarray slides (Amersham, G. E. Healthcare) were arrayed with amine-terminated oligonucleotides (5′-TAA CAA TAA-A10-NH2-3′, Integrated DNA Technologies, Inc.) according to the manufacturer's protocol. The oligonucleotides were printed in triplicate using a GME 418 robotic pin-and-ring microarrayer (Affymetrix).
For scanometric detection of duplex or triplex DNA binding molecules, Au nanoparticles (1 nM) and DNA binding molecules (5 μM) in 10 mM PBS buffer of varying NaCl concentrations were added to the microarray slide under hybridization wells (Nanosphere, Inc.). For detection of triplex binders, 150 nM DNA-3 was added. DNA hybridization proceeded for 30 min (for duplex DNA binders) or 1 h (for triplex DNA binders) in a humidity chamber. After hybridization, the slides were washed three times with 0.5 M NaNO3 containing 0.02% Tween 20. The arrays were dried using a benchtop spinner. Silver enhancement solution (Nanosphere, Inc.) was added for Au-NP signal amplification (1 mL total volume/array, 1.5-min development time for duplex DNA binding molecules and 3 min for triplex binding molecules). The reaction was terminated by washing the slides with NANOpure® water and spin-drying. Light-scattering images from the silver-enhanced chips were recorded using the high-resolution Verigene ID system (Nanosphere, Inc.).
Capture strands of synthetic oligonucleotides are patterned on a glass chip using a microarrayer. The DNA chip is then exposed to DNA functionalized Au nanoparticles (complementary to the capture sequence) and a duplex DNA binder. […]
The hybridization of single stranded DNA to form duplex DNA is a reversible process and the stability of the duplex is affected by several factors such as temperature and salt concentration. […] Therefore, by performing the nanoparticle hybridization process in the presence of different duplex DNA binders as a function of temperature, the relative binding strength of duplex DNA binders can be determined.

Row | SMILES | Tm 2-1 [1] [°C] | Tm^a, melting temperature of nanoassemblies [2] [°C] | signal after silver enhancement ([3]; hybridization at 30° C.) | signal after silver enhancement ([3]; temperature further increased above 30° C.)
1 | Nc1c2ccccc2nc2ccccc12 [9-AA, 9-aminoacridine] | 59.1 | 30.9 | – | –
2 | O=C(O)c1ccc2c(c1)C(=O)c1ccccc1C2=O [AQ2A, anthraquinone-2-carboxylic acid] | 59.1 | 28.5 | – | –
3 | N=C(N)c1ccc(-c2cc3ccc(C(=N)N)cc3[nH]2)cc1 [DAPI, 4′,6-diamidino-2-phenylindole] | 66.3 | 50.4 | leaving the intermediate and strong DNA binders | leaving only the strong duplex DNA binder
4 | COc1cccc2c1C(=O)c1c(O)c3c(c(O)c1C2=O)C[C@@](O)(C(C)=O)C[C@@H]3O[C@H]1C[C@H](N)[C@H](O)[C@H](C)O1 [DNR, daunorubicin] | 61.7 | 38.4 | leaving the intermediate and strong DNA binders | –
5 | Cc1c2ccncc2c(C)c2c1[nH]c1ccccc12 [EIPT, ellipticine] | 59.3 | 29.2 | – | –
